The results in this text go back to patent EP0522504A1, “2-(2-substituted pyrrolidinylthio)-carbapenem derivatives” (Banyu Pharmaceutical Co., Ltd., priority 1991, dated 1993).

Converted amounts (≈) assume the structure as drawn. Like-named read-outs stand apart in the source and are kept apart here.

The test system of data set [1] is bacteria. Kind of data set: in vitro antibacterial activities, agar plate dilution method (MIC). It is filed as cell-based. To be noted: Mueller Hinton agar, inoculum 10⁶ CFU/mℓ, 37°C for 16 hours. On the procedure: One platinum loopful of each test microorganism incubated overnight in Mueller Hinton broth, was inoculated to Mueller Hinton agar (inoculum size: 10⁶ CFU/mℓ). Such culture media contained antibacterial agents in various concentrations. After incubation at 37°C for 16 hours, the minimum inhibitory concentrations (MIC: µg/mℓ) were measured.

Data set [2] has as its system bacteria. Briefly: disc diffusion test (method of Bauer et al.), antibacterial potency relative to thienamycin. The data set is classed as cell-based. Particulars: ratio to thienamycin (= 1.0) of geometrical average MIC, larger value = higher activity. On the procedure: The antibacterial activities of the compounds of the present invention described in the Examples, as representative examples of the compound of the present invention, were measured by a disc diffusion test by the method of Bauer et al. (Amer. J. Clin. Pathol., vol. 45, p. 493 (1966)). Thienamycin or imipenem was used as the internal standard.
MIC of each test compound was calculated from the diameter of the inhibition ring formed by the disc containing the test compound by using the calculation formula reported by Humphrey and Lightbown (J. Gen. Microbiol., vol. 7, p. 129 (1952)). For each microorganism, a geometrical average of MIC was obtained, and the activity ratio to thienamycin was calculated.
The antibacterial activities are represented by the ratio to thienamycin (= 1.0), whereby the larger the numerical value, the higher the activities.
In general terms: A growth-free zone around the sample is the usual read-out of agar diffusion tests.

In a further data set the target is T1, DHP-I (Homo sapiens, UniProt P16444).
T1 sequence (P16444 17-385): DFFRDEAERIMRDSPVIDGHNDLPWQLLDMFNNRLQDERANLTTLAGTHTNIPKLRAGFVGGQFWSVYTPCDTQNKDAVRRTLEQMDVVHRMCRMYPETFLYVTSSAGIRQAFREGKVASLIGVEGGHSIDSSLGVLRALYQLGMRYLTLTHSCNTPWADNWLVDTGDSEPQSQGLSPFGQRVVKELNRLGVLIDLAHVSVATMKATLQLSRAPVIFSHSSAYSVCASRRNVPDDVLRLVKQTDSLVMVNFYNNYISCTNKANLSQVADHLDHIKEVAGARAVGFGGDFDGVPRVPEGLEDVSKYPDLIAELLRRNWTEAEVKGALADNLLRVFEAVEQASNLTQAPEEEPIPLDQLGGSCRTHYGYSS
Briefly: DHP-I susceptibility (method by Kropp et al.), ratio to imipenem. It is filed as in vitro ADME. An excerpt: The DHP-I susceptibility was quantitatively analyzed by the method by Kropp et al., Antimicrob. Agents Chemother., vol. 22, p.

Setting [3] is: Pseudomonas aeruginosa, 16 h, P. aeruginosa MB 5002, read-out: Minimum Inhibitory Concentration(MIC).
The mark [4] stands for this setting: Pseudomonas aeruginosa, 16 h, P. aeruginosa MB 5178, read-out: Minimum Inhibitory Concentration(MIC).
[5] abbreviates: Staphylococcus aureus, 209P / NIHJJC1, 16 h, S. aureus 209P NIHJ JC1, read-out: Minimum Inhibitory Concentration(MIC).
Setting [6] is: Staphylococcus aureus, 16 h, S. aureus BB 5939 (β-lactamase producing microorganism), read-out: Minimum Inhibitory Concentration(MIC).
The mark [7] stands for this setting: Staphylococcus aureus, 16 h, S. aureus MB 4970, read-out: Minimum Inhibitory Concentration(MIC).
[8] abbreviates: ratio to imipenem (=1.0), smaller value = higher stability.

With `C/C(=C/[C@@H]1C[C@H](SC2=C(C(=O)O)N3C(=O)[C@H]([C@@H](C)O)[C@H]3[C@H]2C)CN1)CN.Cl` [Example 7, (1R,5S,6S)-2-[(2S,4S)-2-[(Z)-3-amino-2-methyl-1-propenyl]pyrrolidin-4-ylthio]-6-[(R)-1-hydroxyethyl]-1-methyl-1-carbapen-2-em-3-carboxylic acid hydrochloride], the MIC with bacteria [1] (setting [3]) was 0.78 µg/mL; in the data set on bacteria [1] (setting [4]), 1.56 µg/mL; in the data set on bacteria [1] (setting [5]), under 0.006 µg/mL; in the data set on bacteria [1] (setting [6]), 1.56 µg/mL; with bacteria [1] (setting [7]), under 0.006 µg/mL. For the same molecule, the “Relative antibacterial potency to thienamycin” value (“Relative antibacterial potency” below) in the data set with bacteria [2] (Meth-R S. aureus) is given as 13.5; in the data set with bacteria [2] (THM-R P.aeruginosa), 31.3. The DHP-I susceptibility on DHP-I (setting [8]) is under 0.05.

For the molecule `C[C@@H](O)[C@H]1C(=O)N2C(C(=O)O)=C(SCCN=CN)C[C@H]12` [imipenem, (5R,6S,8R)-3-[[2-(formimidoylamino)ethyl]thio]-6-(1-hydroxyethyl)-7-oxo-1-azabicyclo[3.2.0]hept-2-en-2-carboxylic acid monohydrate, reference compound], the MIC in the data set with bacteria [1] (Pseudomonas aeruginosa, 16 h, read-out: Minimum Inhibitory Concentration(MIC), P. aeruginosa MB 5002) was 1.56 µg/mL; in the data set on bacteria [1] (Pseudomonas aeruginosa, 16 h, read-out: Minimum Inhibitory Concentration(MIC), P. aeruginosa MB 5178), 25 µg/mL; in the data set with bacteria [1] (Staphylococcus aureus, 209P / NIHJJC1, 16 h, read-out: Minimum Inhibitory Concentration(MIC), S. aureus 209P NIHJ JC1) it was under 0.006 µg/mL; in the data set with bacteria [1] (Staphylococcus aureus, 16 h, read-out: Minimum Inhibitory Concentration(MIC), S. aureus BB 5939 (β-lactamase producing microorganism)), 6.25 µg/mL; in the data set on bacteria [1] (Staphylococcus aureus, 16 h, read-out: Minimum Inhibitory Concentration(MIC), S. aureus MB 4970), 0.012 µg/mL. In addition, the “Relative antibacterial potency” value in the data set with bacteria [2] (Meth-R S. aureus) is reported as 2.57; with bacteria [2] (THM-R P.aeruginosa), 2.0. Besides, the DHP-I susceptibility on DHP-I (setting [8]) came out at 1.0. Besides, the “DHP-I susceptibility, ratio to imipenem” value on DHP-I (the smaller the numerical value, the higher the stability) is listed as 1.0.

On to `CNC/C(C)=C\[C@@H]1C[C@H](SC2=C(C(=O)O)N3C(=O)[C@H]([C@@H](C)O)[C@H]3[C@H]2C)CN1.Cl` [Example 9, (1R,5S,6S)-6-[(R)-1-hydroxyethyl]-2-[(2S,4S)-2-[(Z)-3-(N-methylamino)-2-methyl-1-propenyl]pyrrolidin-4-ylthio]-1-methyl-1-carbapen-2-em-3-carboxylic acid hydrochloride], for which the MIC with bacteria [1] (setting [3]) is 0.78 µg/mL; in the data set with bacteria [1] (setting [4]), 3.13 µg/mL; with bacteria [1] (setting [5]) it was under 0.006 µg/mL; in the data set on bacteria [1] (setting [6]), 1.56 µg/mL; in the data set with bacteria [1] (setting [7]), under 0.006 µg/mL. The “Relative antibacterial potency” value in the data set on bacteria [2] (Meth-R S. aureus) turned out to be 19.7; in the data set with bacteria [2] (THM-R P.aeruginosa), 13.4. Besides, on DHP-I (setting [8]), the DHP-I susceptibility is on record as 0.10.

`C[C@@H](O)[C@H]1C(=O)N2C(C(=O)O)=C(S[C@@H]3CN[C@H](/C=C\CN)C3)[C@H](C)[C@H]12` [Example 2, (1R,5S,6S)-2-[(2S,4S)-2-[(Z)-3-amino-1-propenyl]pyrrolidin-4-ylthio]-6-[(R)-1-hydroxyethyl]-1-methyl-1-carbapen-2-em-3-carboxylic acid]: the MIC was 0.78 µg/mL (≈ 2.12 µM) in the data set with bacteria [1] (setting [3]); 1.56 µg/mL (≈ 4.25 µM) in the data set with bacteria [1] (setting [4]); under 0.006 µg/mL in the data set on bacteria [1] (setting [5]); 1.56 µg/mL (≈ 4.25 µM) in the data set with bacteria [1] (setting [6]); 0.012 µg/mL (≈ 0.0327 µM) in the data set on bacteria [1] (setting [7]). Also, the “Relative antibacterial potency” value stood at 12.9 with bacteria [2] (Meth-R S. aureus) and 15.2 in the data set with bacteria [2] (THM-R P.aeruginosa). The DHP-I susceptibility at DHP-I is on record as under 0.05.

For the molecule `C[C@@H](O)[C@H]1C(=O)N2C(C(=O)O)=C(S[C@@H]3CN[C@H](/C=C/C(N)=O)C3)[C@H](C)[C@H]12` [BO-2171, (1R,5S,6S)-2-[(2S,4S)-2-[(E)-2-(aminocarbonyl)vinyl]pyrrolidin-4-ylthio]-6-[(R)-1-hydroxyethyl]-1-methyl-1-carbapen-2-em-3-carboxylic acid, reference compound], the MIC in the data set on bacteria [1] (setting [3]) amounted to 6.25 µg/mL (≈ 16.4 µM); in the data set on bacteria [1] (setting [4]) it was 12.5 µg/mL (≈ 32.8 µM); with bacteria [1] (setting [5]), 0.025 µg/mL (≈ 0.0655 µM); in the data set on bacteria [1] (setting [6]) it was 6.25 µg/mL (≈ 16.4 µM); in the data set with bacteria [1] (setting [7]), 0.025 µg/mL (≈ 0.0655 µM). Further, the “Relative antibacterial potency” value with bacteria [2] (Meth-R S. aureus) is 7.68; in the data set with bacteria [2] (THM-R P.aeruginosa), 3.28. The DHP-I susceptibility on DHP-I is listed as 0.3.
